Laboratory results published in US20220193185A1, “COMBINATION OF SYNTHETIC PEPTIDES WITH AFFINITY TO THE TGF-ß RECEPTOR AND WITH AFFINITY TO THE IL-10 RECEPTOR, PHARMACEUTICAL COMPOSITION AND THEIR USE AS IMMUNOMODULATORS IN THE TREATMENT OF AUTOIMMUNE, INFLAMMATORY OR ALLERGIC DISEASES” (Universidade Federal de Uberlândia, priority 2019, published 2022).
Bridges are numbered along the chain shown (N, C = ends). Where no end group is shown, it is not given here.

What was measured:
[1] = system: TGF-β1 receptor on A549 cells; experiment: ELISA on cells of the A549 line using anti-TGF-β1 antibody; assay type: binding, human
Method: The peptides described in this patent application were selected using the Phage Display (PD) methodology. The selection was performed by evaluating the ability of said peptides to recognize the TGF-β1 receptor on A549 cells, using an ELISA assay. MaxiSorp 96-well microtiter plates were coated with 1×10^6 cells diluted in PBS and incubated overnight at 4° C. Cells were blocked with 3% PBS-BSA for 1 h at 37° C., washed once with PBS and incubated with […] of each TGF-β1 mimetic peptide or 5 ng/ml of recombinant TGF-β1 for 1 h at 37° C. After washing, the plate was incubated for 1 h at 37° C. with anti-TGF-β1 antibody. The plate was washed and incubated with HRP-labeled anti-human IgG antibody for 1 h at 37° C. After washing, TMB substrate solution was added to the plate; the reaction was stopped by adding the 2N H2SO4 solution and read at 492 nm in a microplate reader.
To investigate whether the synthesized peptides could bind to cell receptors, an ELISA assay was performed on cells of the A549 line using commercial anti-TGF-β1 antibody.

[2] = system: TFGβRII/SMAD-dependent pathway; experiment: HEK-blue-TGFβ reporter cells, SEAP production; assay type: cell-based; details: tested at 0.1, 1, 10 and 100 μM; for concentrations with statistically significant activation of the SMAD-dependent pathway (SEAP): 12 hours
Method: After 12 hours of stimulation (FIG. 4A), all peptides were able to bind to the receptor.
The assay was performed in such a way that approximately 2.5×10^4 cells/well (100 μL) were treated with 100 μL of all synthetic peptides at different concentrations (100 μM, 10 μM, 1 μM and 0.1 μM) while rTGF-β1 ([…]) at 100 ng/ml was used as a positive control. After incubating the cells for 12, 24 and 48 hours at 37° C. in 5% CO2, […] of supernatant was transferred to a Greiner plate to which […] of Quanti-blue solution was added. The plate was incubated for 1 hour at 37° C. in 5% CO2 and the production of SEAP (secreted alkaline phosphatase) was detected at 655 nm. All tests were performed in triplicate.

TLR4 pathway = experiment: HEK-Blue hTLR4 reporter cells, SEAP production (TGF-β1 mimetic peptides); assay type: cell-based; details: peptide pretreatment 1 hour, then LPS 100 ng/mL; 12 hours
Method: Similar to the treatment using Jurkat cells, peptides in compositions with different concentrations were also tested in HEK cells to investigate their ability to interfere with the TLR4 pathway.
To ensure that the peptides could not induce any activation when tested alone (no pathway activation molecule) only the peptides were added into the cell line and SEAP production was measured after 12 hours of treatment (Figure not shown).
The assay was performed using HEK-Blue hTLR4 reporter cells (InvivoGen) to investigate the action of peptides in the TLR4 pathway. A total of 2.3×10^4 cells/well ([…]) was pretreated with […] of composition comprising at least one of the synthetic peptides at concentrations of 100 μM, 10 μM, 1 μM, and 0.1 μM for 1 hour at 37° C. ° C. in 5% CO2 followed by LPS stimulation at 100 ng/mL for 12 hours. The same stimuli were applied to cells pretreated with LPS at 100 ng/ml for 1 hour at 37° C. in 5% CO2, followed by stimuli with peptides at 100 μM, 10 μM, 1 μM and 0.1 μM for 12 hours. Stimuli were added in Quanti-blue medium and SEAP production was measured at 655 nm. As a control, peptides at the same concentrations were tested alone to investigate whether they could activate the TLR4 pathway and LPS was used as a positive control.

NFkB pathway [3] = experiment: NFkB expression in Jurkat cells, luciferase (TGF-β1 mimetic peptides); assay type: cell-based, human; details: 24 hours
Method: Two different cell treatments were performed using Jurkat cells to analyze NFkB expression after 12, 24 and 48 hours. In the first test, Jurkat cells were treated only with peptides (no pathway activating molecule) at different concentrations to analyze the ability of each peptide to induce NFkB expression (Figure not shown). None of the tested concentrations induced any type of pathway activation.
The assay was carried out in such a way that a total of 3×10^5 cells/well ([…]) was pretreated with […] of a composition comprising one of the synthetic peptides in concentrations of 100 μM, 10 μM, 1 μM, and 0.1 μM for 1 hour at 37° C. in 5% CO2, followed by stimulation with TNF-α (200 ng/ml) for 12, 24 and 48 hours. The same stimuli were applied to cells pretreated with TNF-α (200 ng/ml) for 1 hour at 37° C. in 5% CO2 followed by stimulation with peptides at 100 μM, 10 μM, 1 μM and 0.1 μM for 12, 24 and 48 hours. Then, […] of supernatant was transferred to a white plate and Quanti-Luc reagent was used to measure the luciferase product. As a control, the peptides were tested at the same concentrations, without any pathway activating molecule, to investigate whether they could activate the NFkB pathway. TNF-α (200 ng/mL) was used as a positive control and rIL-10 (0.4 ng/mL) as a negative control. […].

NFkB pathway [4] = experiment: NFkB expression in Jurkat-Dual reporter cells, luciferase (IL-10 mimetic peptides); assay type: cell-based; details: without activating molecules; 12, 24 and 48 hours; different concentrations
Method: (§1) In order to investigate the ability of synthetic peptides with affinity to the Interleukin-10 receptor to interfere in the NFkB, IFN and TLR4 pathways, reporter cell lines were used. To analyze whether the isolated peptides (without activation molecules) could induce any type of activation, the isolated peptides were tested in cell lines during 12, 24 and 48 hours of treatment. […] As an example, FIG. 13A, FIG. 13B, and FIG. 13C show an analysis of NFkB expression after stimulation with the synthesized IL-10 receptor affinity synthetic peptides described herein. Cells were treated for 12, 24 and 48 hours with the synthesized peptides Pep 1-IL10, Pep 2-IL10, Pep 3-IL10 and Pep 4-IL10, at different concentrations, without activating molecules. Luciferase was then measured after 12 hours of treatment (FIG. 13A), 24 hours of treatment (FIG. 13B) and 48 hours of treatment (FIG. 13C). […] TNF-α (200 ng/mL) was used as a positive control.
The assay was then carried out using TNF-α as activation molecule not only in the control, but after a pretreatment with the synthesized peptides Pep 1-IL10, Pep 2-IL10, Pep 3-IL10 and Pep 4-IL10, at different concentrations. All peptides were able to modulate NFKB activation after 12, 24 and 48 hours, with different results depending on the concentrations used. […] In the assays shown by FIGS. 14 A, B and C, analysis of NFkB expression was performed in Jurkat-Dual reporter cells. Cells were treated for 1 hour with peptides and TNF-α (200 ng/ml) added. Luciferase was measured after 12 hours of treatment (FIG. 14A), 24 hours of treatment (FIG. 14B) and 48 hours of treatment (FIG. 14C).
Another assay was then performed in which cells were pretreated with TNF-α and the synthesized peptides Pep 1-IL10, Pep 2-IL10, Pep 3-IL10 and Pep 4-IL10, at different concentrations, were added later. All peptides were able to modulate NFKB activation after 12, 24 and 48 hours, with different results depending on the concentrations used. The most significant results will be described below. […] After 48 hours of treatment, Pep 1-IL-10 at a concentration of 0.001 μM (P<0.05) was the one that obtained a result with the highest statistical significance in the decrease of NFKB signaling (FIG. 15C). In the assays shown by FIGS. 15 A, B and C, analysis of NFkB expression was performed in Jurkat-Dual reporter cells. Cells were treated for 1 hour with TNF-α (200 ng/ml) and peptides were added. Luciferase was measured after 12 hours of treatment (FIG. 15A), 24 hours of treatment (FIG. 15B) and 48 hours of treatment (FIG. 15C). TNF-α (200 ng/mL) was used as a positive control and rlL-10 (recombinant Interleukin-10) (0.4 ng/mL) as a negative control. *P<0.05; **P<0.005; ***P<0.0005.

IFN signaling pathway = IFN signaling pathway in Jurkat-Dual reporter cells, SEAP production; assay type: cell-based; details: after 12, 24 and 48 hours; results depend on concentration
Method: as §1
The most significant results will be described below. […] When cells were pretreated with IFN, although peptides at some concentrations indicated results, they were not statistically sufficient. Therefore, we cannot confirm whether they were able to interfere with pathway activation (FIGS. 17 A, B and C) in an equal or better way than the negative control (rIL-10). In the assays shown by FIGS. 16 (A, B and C) and FIGS. 17 (A, B and C), analysis of IFN expression was performed in Jurkat-Dual reporter cells. In the assays shown by FIGS. 16 A, B and C, cells were treated for 1 hour with peptides with further addition of IFN-α (104 EU/ml). Secreted Embryonic Alkaline Phosphatase (SEAP) production was measured after 12 hours of treatment (FIG. 16A), 24 hours of treatment (FIG. 16 B) and 48 hours of treatment (FIG. 16 C). In the assays shown by FIGS. 17A, B and C, cells were treated for 1 hour with IFN-α (104 EU/ml) with further addition of the peptides. SEAP production was measured after (A) 12 hours of treatment (B), 24 hours of treatment and (C) 48 hours of treatment. IFN-α (104 EU/ml) was used as a positive control and rlL-10 (0.4 ng/ml) as a negative control. *P<0.05.

[5] = aggregation behavior in solution by Dynamic Light Scattering (DLS); assay type: physicochemical; details: for measured hydrodynamic radius: IL-10 mimetic peptides in solution

## Pep 6-TGF-β1: synthetic peptide with affinity to the TGF-β receptor, SEQ ID N 06, free of disulfide bridges (HASKLQRSEPSGGGS)
[1]
  recognition of receptor-bound peptide by anti-TGF-β1 antibody compared to recombinant TGF-β1: recognized as statistically different
[2]
  concentrations with statistically significant activation of the SMAD-dependent pathway (SEAP): 0.1 μM, 10 μM and 100 μM
[2]; 24 hours
  concentrations with significant maintained activation of the SMAD-dependent pathway (SEAP): 100 µM
[2]; 48 hours
  concentrations with significant maintained activation of the SMAD-dependent pathway (SEAP): 0.1 µM and 1 µM
TLR4 pathway
  concentrations with statistically significant reduction of TLR4 pathway activation: 1 µM
NFkB pathway [3]; peptide pretreatment 1 hour, then TNF-α, tested at 0.1-100 μM
  concentrations with statistically significant decrease of NFKB pathway activation vs TNF-α control: 0.1 µM

## Pep 3-IL-10: synthetic peptide with affinity to the Interleukin-10 receptor, SEQ ID NO: 11 (HCFDTQRMEFRMPPGG)
NFkB pathway [4]
  induction of NFkB expression by peptides alone: not able to induce any response
IFN signaling pathway
  modulation of the activation of the IFN signaling pathway: able to modulate the activation of the IFN signaling pathway
[5]
  measured hydrodynamic radius: 0.79 nm

## Pep 1-TGF-β1: synthetic peptide with affinity to the TGF-β receptor, SEQ ID N 01, with disulfide bridges (HACFLPASGLCGGGS; disulfide 3-11)
[1]
  recognition of receptor-bound peptide by anti-TGF-β1 antibody compared to recombinant TGF-β1: in the same way that the antibody recognized the TGF-β1 recombinant molecule
[5]; TGF-β1 mimetic peptides in solution
  hydrodynamic radius: 0.58 nm

## Pep 4-IL-10: synthetic peptide with affinity to the Interleukin-10 receptor, SEQ ID NO: 12 (HCMTGSRATFPSAPGG)
NFkB pathway [4]
  induction of NFkB expression by peptides alone: not able to induce any response
IFN signaling pathway
  modulation of the activation of the IFN signaling pathway: able to modulate the activation of the IFN signaling pathway
[5]
  measured hydrodynamic radius: 0.86 nm

## Pep 3-TGF-β1: synthetic peptide with affinity to the TGF-β receptor, SEQ ID N 03, free of disulfide bridges (HASESPLKRQSGGGS)
[1]
  recognition of receptor-bound peptide by anti-TGF-β1 antibody compared to recombinant TGF-β1: in the same way that the antibody recognized the TGF-β1 recombinant molecule

## Pep 8-TGF-β1: synthetic peptide with affinity to the TGF-β receptor, SEQ ID N 08, free of disulfide bridges (HASTLPSNTHSGGGS)
[1]
  recognition of receptor-bound peptide by anti-TGF-β1 antibody compared to recombinant TGF-β1: recognized as statistically different
[2]
  concentrations with statistically significant activation of the SMAD-dependent pathway (SEAP): 1 µM
[2]; 24 hours
  concentrations with significant maintained activation of the SMAD-dependent pathway (SEAP): 1 µM
[2]; 48 hours
  concentrations with significant maintained activation of the SMAD-dependent pathway (SEAP): 0.1 μM, 1 μM and 10 μM
NFkB pathway [3]; cells pretreated with TNF-α, then peptide
  concentration with statistically significant reduction of the NFKB pathway: 0.1 µM

## Pep 4-TGF-β1: synthetic peptide with affinity to the TGF-β receptor, SEQ ID N 04, with disulfide bridges (HACKLQRSEPCGGGS; disulfide 3-11 (inferred))
[1]
  recognition of receptor-bound peptide by anti-TGF-β1 antibody compared to recombinant TGF-β1: recognized as statistically different
